System: rodent lifetime carcinogenesis bioassay, tumor incidence TD50
Assay: carcinogenic potency in animals, long-term in vivo studies, CPDB compilation (AID 1745844)
Conditions: rat, strain Fischer 344, in feed

Question: Which results are given for Nc1c(Br)cc(Br)c2c1C(=O)c1ccccc1C2=O?
Answer: TD50 (females, site: liver, lesion: hepatocholangiocarcinoma, dosed 103 weeks, study length 104 weeks): 566 mg/kg/day; TD50 (females, site: rectum, lesion: adenocarcinoma, dosed 103 weeks, study length 104 weeks): 420 mg/kg/day; TD50 (females, site: rectum, lesion: polypoid adenoma, dosed 40 weeks, study length 66 weeks): 217 mg/kg/day; TD50 (females, site: rectum, lesion: polypoid adenoma, dosed 103 weeks, study length 104 weeks): 74 mg/kg/day; TD50 (females, site: skin, lesion: squamous-cell papilloma, dosed 103 weeks, study length 104 weeks): 2600 mg/kg/day; TD50 (females, site: urinary bladder, lesion: transitional-cell carcinoma + transitional-cell papilloma + transitional epithelium, squamous-cell carcinoma + transitional ep, dosed 66 weeks, study length 66 weeks): 2190 mg/kg/day; TD50 (females, site: urinary bladder, lesion: transitional-cell carcinoma + transitional-cell papilloma + transitional epithelium, squamous-cell carcinoma + transitional ep, dosed 103 weeks, study length 104 weeks): 304 mg/kg/day; TD50 (females, site: urinary bladder, lesion: transitional-cell carcinoma, dosed 66 weeks, study length 66 weeks): 4830 mg/kg/day; TD50 (females, site: urinary bladder, lesion: transitional-cell carcinoma, dosed 103 weeks, study length 104 weeks): 656 mg/kg/day; TD50 (females, site: urinary bladder, lesion: transitional-cell papilloma, dosed 103 weeks, study length 104 weeks): 782 mg/kg/day; TD50 (males, site: any site (literature study), lesion: several types, types named in the paper, dosed 39 weeks, study length 66 weeks): 123 mg/kg/day; TD50 (males, site: any site (literature study), lesion: several types, types named in the paper, dosed 66 weeks, study length 66 weeks): 193 mg/kg/day; TD50 (males, site: any site (literature study), lesion: several types, types named in the paper, dosed 103 weeks, study length 104 weeks): 130 mg/kg/day; TD50 (males, site: colon + kidney + liver + rectum + urinary bladder, lesion: adenocarcinoma + polypoid adenoma + tubule adenoma + tubule carcinoma + hepatocholangiocarcinoma + hepatocellular adenoma + hepatoce, dosed 103 weeks, study length 104 weeks): 54.6 mg/kg/day; TD50 (males, site: colon + rectum, lesion: adenocarcinoma, dosed 66 weeks, study length 66 weeks): 1870 mg/kg/day; TD50 (males, site: colon + rectum, lesion: adenocarcinoma, dosed 103 weeks, study length 104 weeks): 320 mg/kg/day; TD50 (males, site: colon + rectum, lesion: polypoid adenoma, dosed 39 weeks, study length 66 weeks): 297 mg/kg/day; TD50 (males, site: colon + rectum, lesion: polypoid adenoma, dosed 66 weeks, study length 66 weeks): 426 mg/kg/day; TD50 (males, site: colon + rectum, lesion: polypoid adenoma, dosed 103 weeks, study length 104 weeks): 64.3 mg/kg/day; TD50 (males, site: colon, lesion: adenocarcinoma, dosed 103 weeks, study length 104 weeks): 2010 mg/kg/day; TD50 (males, site: colon, lesion: polypoid adenoma, dosed 103 weeks, study length 104 weeks): 1660 mg/kg/day; TD50 (males, site: kidney, lesion: tubule adenoma + tubule carcinoma, dosed 39 weeks, study length 66 weeks): 239 mg/kg/day; TD50 (males, site: kidney, lesion: tubule adenoma + tubule carcinoma, dosed 66 weeks, study length 66 weeks): 1770 mg/kg/day; TD50 (males, site: kidney, lesion: tubule adenoma + tubule carcinoma, dosed 103 weeks, study length 104 weeks): 264 mg/kg/day; TD50 (males, site: kidney, lesion: tubule adenoma, dosed 39 weeks, study length 66 weeks): 239 mg/kg/day; TD50 (males, site: kidney, lesion: tubule adenoma, dosed 66 weeks, study length 66 weeks): 1770 mg/kg/day; TD50 (males, site: kidney, lesion: tubule adenoma, dosed 103 weeks, study length 104 weeks): 292 mg/kg/day; TD50 (males, site: liver, lesion: hepatocellular adenoma + hepatoblastoma + hepatocellular carcinoma, dosed 39 weeks, study length 66 weeks): 70.3 mg/kg/day; TD50 (males, site: liver, lesion: hepatocellular adenoma + hepatoblastoma + hepatocellular carcinoma, dosed 66 weeks, study length 66 weeks): 102 mg/kg/day; TD50 (males, site: liver, lesion: hepatocellular adenoma + hepatoblastoma + hepatocellular carcinoma, dosed 103 weeks, study length 104 weeks): 53.8 mg/kg/day; TD50 (males, site: liver, lesion: hepatocellular adenoma + hepatocellular carcinoma, dosed 39 weeks, study length 66 weeks): 70.3 mg/kg/day; TD50 (males, site: liver, lesion: hepatocellular adenoma + hepatocellular carcinoma, dosed 66 weeks, study length 66 weeks): 102 mg/kg/day; TD50 (males, site: liver, lesion: hepatocellular adenoma + hepatocellular carcinoma, dosed 103 weeks, study length 104 weeks): 53.8 mg/kg/day; TD50 (males, site: liver, lesion: hepatocellular adenoma, dosed 39 weeks, study length 66 weeks): 97.8 mg/kg/day; TD50 (males, site: liver, lesion: hepatocellular adenoma, dosed 66 weeks, study length 66 weeks): 386 mg/kg/day; TD50 (males, site: liver, lesion: hepatocellular adenoma, dosed 103 weeks, study length 104 weeks): 71.4 mg/kg/day; TD50 (males, site: liver, lesion: hepatocellular carcinoma, dosed 39 weeks, study length 66 weeks): 95.8 mg/kg/day; TD50 (males, site: liver, lesion: hepatocellular carcinoma, dosed 66 weeks, study length 66 weeks): 114 mg/kg/day; TD50 (males, site: liver, lesion: hepatocellular carcinoma, dosed 103 weeks, study length 104 weeks): 59.6 mg/kg/day; TD50 (males, site: liver, lesion: hepatocholangiocarcinoma, dosed 39 weeks, study length 66 weeks): 1240 mg/kg/day; TD50 (males, site: liver, lesion: hepatocholangiocarcinoma, dosed 103 weeks, study length 104 weeks): 1230 mg/kg/day; TD50 (males, site: lung, lesion: alveolar/bronchiolar adenoma + alveolar/bronchiolar carcinoma, dosed 103 weeks, study length 104 weeks): 794 mg/kg/day; TD50 (males, site: lung, lesion: alveolar/bronchiolar adenoma, dosed 103 weeks, study length 104 weeks): 1290 mg/kg/day; TD50 (males, site: rectum, lesion: adenocarcinoma, dosed 103 weeks, study length 104 weeks): 363 mg/kg/day; TD50 (males, site: rectum, lesion: polypoid adenoma, dosed 39 weeks, study length 66 weeks): 297 mg/kg/day; TD50 (males, site: rectum, lesion: polypoid adenoma, dosed 66 weeks, study length 66 weeks): 426 mg/kg/day; TD50 (males, site: rectum, lesion: polypoid adenoma, dosed 103 weeks, study length 104 weeks): 64.3 mg/kg/day; TD50 (males, site: testis, lesion: interstitial-cell adenoma, bilateral + interstitial-cell adenoma, dosed 103 weeks, study length 104 weeks): 133 mg/kg/day; TD50 (males, site: urinary bladder, lesion: transitional-cell carcinoma + transitional-cell papilloma, dosed 66 weeks, study length 66 weeks): 3640 mg/kg/day; TD50 (males, site: urinary bladder, lesion: transitional-cell carcinoma + transitional-cell papilloma, dosed 103 weeks, study length 104 weeks): 564 mg/kg/day; TD50 (males, site: urinary bladder, lesion: transitional-cell carcinoma, dosed 66 weeks, study length 66 weeks): 3640 mg/kg/day; TD50 (males, site: urinary bladder, lesion: transitional-cell carcinoma, dosed 103 weeks, study length 104 weeks): 1790 mg/kg/day; TD50 (males, site: urinary bladder, lesion: transitional-cell papilloma, dosed 103 weeks, study length 104 weeks): 846 mg/kg/day
